Assay results published in ChEMBL document CHEMBL4507319 (2021).

Assays:
[1] = biological target: Receptor-type tyrosine-protein kinase FLT3 (Homo sapiens) (UniProt P36888); conditions: Compound concentration 1.0 uM
[2] = biological target: Protein kinase C eta type (Homo sapiens) (UniProt P24723); assay: PKCeta (h) Eurofins kinase panel; conditions: Compound concentration 1.0 uM
[3] = biological target: Insulin receptor (Homo sapiens) (UniProt P06213); assay: IR(h) Eurofins kinase panel; conditions: Compound concentration 1.0 uM
[4] = biological target: 5'-AMP-activated protein kinase catalytic subunit alpha-1 (Homo sapiens, UniProt Q13131)
[5] = biological target: Casein kinase I isoform gamma-1 (Homo sapiens) (UniProt Q9HCP0); assay: CK1gamma1(h) Eurofins kinase panel; conditions: Compound concentration 1.0 uM
[6] = biological target: T1, Activin receptor type-1 (Homo sapiens) (UniProt Q04771); assay: ALK2(h) Eurofins kinase panel; conditions: Compound concentration 1.0 uM
T1 sequence (whole entry): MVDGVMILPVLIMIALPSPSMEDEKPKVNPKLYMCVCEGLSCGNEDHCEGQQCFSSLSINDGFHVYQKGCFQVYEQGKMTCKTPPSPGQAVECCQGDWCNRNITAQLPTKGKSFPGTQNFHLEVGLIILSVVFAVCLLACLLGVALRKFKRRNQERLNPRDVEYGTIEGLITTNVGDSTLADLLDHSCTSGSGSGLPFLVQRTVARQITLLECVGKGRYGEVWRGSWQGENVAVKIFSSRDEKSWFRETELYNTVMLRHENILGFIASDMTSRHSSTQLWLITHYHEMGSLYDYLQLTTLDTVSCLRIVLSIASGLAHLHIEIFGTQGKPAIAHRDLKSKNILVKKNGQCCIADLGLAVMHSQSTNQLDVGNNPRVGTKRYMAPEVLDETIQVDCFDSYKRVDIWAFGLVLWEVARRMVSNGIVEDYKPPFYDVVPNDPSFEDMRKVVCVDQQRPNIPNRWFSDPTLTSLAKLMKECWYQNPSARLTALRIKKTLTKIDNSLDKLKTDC

Homo sapiens = species: Homo sapiens; assay: CK2(h) Eurofins kinase panel; conditions: Compound concentration 1.0 uM
[7] = biological target: Protein kinase C beta type (Homo sapiens) (UniProt P05771); assay: PKCbetaI (h) Eurofins kinase panel; conditions: Compound concentration 1.0 uM
[8] = biological target: Protein kinase C delta type (Homo sapiens) (UniProt Q05655); assay: PKCdelta (h) Eurofins kinase panel; conditions: Compound concentration 1.0 uM
[9] = biological target: T2, Serine/threonine-protein kinase Nek1 (Homo sapiens) (UniProt Q96PY6); assay: NEK1(h) Eurofins kinase panel; conditions: Compound concentration 1.0 uM
T2 sequence (whole entry): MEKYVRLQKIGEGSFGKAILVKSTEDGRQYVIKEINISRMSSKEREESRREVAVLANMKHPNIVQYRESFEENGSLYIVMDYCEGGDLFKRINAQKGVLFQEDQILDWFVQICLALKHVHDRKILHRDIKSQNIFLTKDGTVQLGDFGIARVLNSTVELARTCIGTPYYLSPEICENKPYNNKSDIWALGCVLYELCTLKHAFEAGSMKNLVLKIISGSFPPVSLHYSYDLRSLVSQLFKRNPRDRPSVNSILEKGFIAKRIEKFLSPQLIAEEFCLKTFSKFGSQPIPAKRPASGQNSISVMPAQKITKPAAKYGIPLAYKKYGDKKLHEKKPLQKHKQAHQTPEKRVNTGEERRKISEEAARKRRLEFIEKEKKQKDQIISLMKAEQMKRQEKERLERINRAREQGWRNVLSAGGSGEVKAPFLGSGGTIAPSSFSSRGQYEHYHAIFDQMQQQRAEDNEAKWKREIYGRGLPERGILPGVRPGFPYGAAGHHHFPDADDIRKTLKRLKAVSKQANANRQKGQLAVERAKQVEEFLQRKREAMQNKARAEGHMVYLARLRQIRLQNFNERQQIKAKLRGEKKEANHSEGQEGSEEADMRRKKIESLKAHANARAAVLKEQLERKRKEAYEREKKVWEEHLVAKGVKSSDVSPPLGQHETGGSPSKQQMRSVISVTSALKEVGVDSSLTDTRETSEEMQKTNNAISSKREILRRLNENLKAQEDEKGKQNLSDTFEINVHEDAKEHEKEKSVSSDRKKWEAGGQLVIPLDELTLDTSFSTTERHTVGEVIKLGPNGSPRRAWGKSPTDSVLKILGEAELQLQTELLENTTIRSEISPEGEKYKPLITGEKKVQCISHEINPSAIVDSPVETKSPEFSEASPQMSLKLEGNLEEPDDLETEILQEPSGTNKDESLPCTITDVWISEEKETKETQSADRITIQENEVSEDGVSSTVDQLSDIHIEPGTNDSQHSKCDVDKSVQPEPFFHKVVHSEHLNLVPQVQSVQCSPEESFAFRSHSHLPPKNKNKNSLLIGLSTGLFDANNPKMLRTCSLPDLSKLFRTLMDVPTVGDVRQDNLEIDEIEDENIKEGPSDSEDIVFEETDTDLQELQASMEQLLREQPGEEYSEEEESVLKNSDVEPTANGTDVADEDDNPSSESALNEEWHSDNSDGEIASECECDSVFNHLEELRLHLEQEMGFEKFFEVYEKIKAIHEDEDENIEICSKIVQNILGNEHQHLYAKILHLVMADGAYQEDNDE

[10] = biological target: Platelet-derived growth factor receptor beta (Homo sapiens) (UniProt P09619); assay: PDGFRbeta(h) Eurofins kinase panel; conditions: Compound concentration 1.0 uM
[11] = biological target: Phosphatidylinositol 4,5-bisphosphate 3-kinase catalytic subunit gamma isoform (Homo sapiens) (UniProt P48736); assay: PI3 Kinase (p120g)(h) Eurofins kinase panel; conditions: Compound concentration 1.0 uM
Phosphatidylinositol 4,5-bisphosphate 3-kinase catalytic subunit gamma isoform (Homo sapiens), sequence (P48736 whole entry, looked up, canonical isoform): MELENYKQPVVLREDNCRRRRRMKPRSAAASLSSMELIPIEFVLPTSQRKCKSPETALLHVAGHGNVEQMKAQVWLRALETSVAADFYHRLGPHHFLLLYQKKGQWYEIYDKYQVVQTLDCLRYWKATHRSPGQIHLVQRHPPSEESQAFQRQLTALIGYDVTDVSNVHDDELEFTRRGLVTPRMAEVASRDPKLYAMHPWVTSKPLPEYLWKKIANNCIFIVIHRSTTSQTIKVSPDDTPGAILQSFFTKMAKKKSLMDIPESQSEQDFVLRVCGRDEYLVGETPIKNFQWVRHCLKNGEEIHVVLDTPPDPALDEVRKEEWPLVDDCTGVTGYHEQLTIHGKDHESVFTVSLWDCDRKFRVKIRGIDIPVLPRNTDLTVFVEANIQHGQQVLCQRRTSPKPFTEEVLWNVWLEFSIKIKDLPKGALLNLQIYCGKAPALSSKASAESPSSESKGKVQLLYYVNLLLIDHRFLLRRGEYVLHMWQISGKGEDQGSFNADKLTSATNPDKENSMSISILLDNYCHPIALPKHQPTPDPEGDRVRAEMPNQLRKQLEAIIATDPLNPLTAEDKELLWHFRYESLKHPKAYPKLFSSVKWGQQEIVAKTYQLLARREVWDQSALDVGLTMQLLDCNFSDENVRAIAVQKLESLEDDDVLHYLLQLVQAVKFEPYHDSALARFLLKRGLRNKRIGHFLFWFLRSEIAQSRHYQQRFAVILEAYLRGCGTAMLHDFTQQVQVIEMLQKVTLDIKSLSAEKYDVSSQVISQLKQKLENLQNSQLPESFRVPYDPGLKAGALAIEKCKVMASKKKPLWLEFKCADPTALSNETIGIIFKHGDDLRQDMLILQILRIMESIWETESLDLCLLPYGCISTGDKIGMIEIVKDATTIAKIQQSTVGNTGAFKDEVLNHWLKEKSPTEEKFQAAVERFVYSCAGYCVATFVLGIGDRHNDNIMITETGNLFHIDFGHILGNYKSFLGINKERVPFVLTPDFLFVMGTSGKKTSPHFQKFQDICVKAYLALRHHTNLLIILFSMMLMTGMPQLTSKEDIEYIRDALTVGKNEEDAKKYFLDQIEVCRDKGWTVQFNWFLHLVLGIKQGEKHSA

Protein kinase C eta type (Homo sapiens), sequence (P24723 whole entry): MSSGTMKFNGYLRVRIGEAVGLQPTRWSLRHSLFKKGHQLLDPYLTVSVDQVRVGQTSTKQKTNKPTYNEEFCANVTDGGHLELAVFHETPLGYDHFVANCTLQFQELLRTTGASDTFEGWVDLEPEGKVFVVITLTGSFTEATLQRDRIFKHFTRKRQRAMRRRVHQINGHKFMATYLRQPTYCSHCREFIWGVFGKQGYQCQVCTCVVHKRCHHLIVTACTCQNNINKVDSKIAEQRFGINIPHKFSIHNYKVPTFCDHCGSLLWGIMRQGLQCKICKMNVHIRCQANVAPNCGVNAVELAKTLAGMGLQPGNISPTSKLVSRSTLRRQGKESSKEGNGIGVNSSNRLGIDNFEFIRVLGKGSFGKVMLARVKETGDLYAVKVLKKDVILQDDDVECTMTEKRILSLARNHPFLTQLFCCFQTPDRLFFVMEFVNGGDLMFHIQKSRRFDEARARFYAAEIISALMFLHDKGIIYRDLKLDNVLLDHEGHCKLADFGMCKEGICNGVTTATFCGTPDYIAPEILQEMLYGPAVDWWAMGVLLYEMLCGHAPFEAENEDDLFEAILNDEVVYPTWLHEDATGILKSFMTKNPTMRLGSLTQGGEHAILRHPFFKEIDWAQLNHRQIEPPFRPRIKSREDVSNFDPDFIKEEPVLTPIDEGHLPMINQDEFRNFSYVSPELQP
Protein kinase C beta type (Homo sapiens), sequence (P05771 2-671 limits assumed): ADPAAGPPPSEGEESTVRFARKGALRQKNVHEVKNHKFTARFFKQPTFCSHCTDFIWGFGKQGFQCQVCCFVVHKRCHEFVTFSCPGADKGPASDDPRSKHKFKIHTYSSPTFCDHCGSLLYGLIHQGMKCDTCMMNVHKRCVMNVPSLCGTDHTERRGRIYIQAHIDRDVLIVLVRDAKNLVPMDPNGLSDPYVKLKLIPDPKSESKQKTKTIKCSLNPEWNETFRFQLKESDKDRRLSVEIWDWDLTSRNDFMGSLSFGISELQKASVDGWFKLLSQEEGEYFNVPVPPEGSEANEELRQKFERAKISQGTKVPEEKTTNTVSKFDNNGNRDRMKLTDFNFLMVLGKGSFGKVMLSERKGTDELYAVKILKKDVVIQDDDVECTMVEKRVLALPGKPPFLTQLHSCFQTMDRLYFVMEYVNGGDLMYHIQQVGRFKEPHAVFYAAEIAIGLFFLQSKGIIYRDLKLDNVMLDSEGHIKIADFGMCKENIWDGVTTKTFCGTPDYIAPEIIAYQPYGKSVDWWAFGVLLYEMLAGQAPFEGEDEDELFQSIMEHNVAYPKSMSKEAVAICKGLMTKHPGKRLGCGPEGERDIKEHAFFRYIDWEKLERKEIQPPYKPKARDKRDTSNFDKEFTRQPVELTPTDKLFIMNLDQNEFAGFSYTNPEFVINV
5'-AMP-activated protein kinase catalytic subunit alpha-1, sequence (Q13131 whole entry, canonical isoform): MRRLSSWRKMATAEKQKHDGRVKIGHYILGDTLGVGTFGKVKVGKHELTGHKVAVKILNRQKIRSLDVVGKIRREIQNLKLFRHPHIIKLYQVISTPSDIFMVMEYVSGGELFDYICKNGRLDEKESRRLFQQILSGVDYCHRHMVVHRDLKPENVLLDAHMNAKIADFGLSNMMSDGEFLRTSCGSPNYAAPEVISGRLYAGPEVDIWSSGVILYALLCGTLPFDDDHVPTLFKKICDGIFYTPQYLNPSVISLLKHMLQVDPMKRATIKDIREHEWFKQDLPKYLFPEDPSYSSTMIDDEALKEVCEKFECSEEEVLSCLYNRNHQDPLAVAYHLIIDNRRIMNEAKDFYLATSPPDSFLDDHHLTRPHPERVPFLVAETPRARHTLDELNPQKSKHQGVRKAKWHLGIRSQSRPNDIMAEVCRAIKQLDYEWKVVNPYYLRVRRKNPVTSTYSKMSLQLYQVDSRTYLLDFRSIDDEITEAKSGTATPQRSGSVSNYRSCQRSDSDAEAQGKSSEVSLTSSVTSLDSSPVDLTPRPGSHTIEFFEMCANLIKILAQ
Platelet-derived growth factor receptor beta (Homo sapiens), sequence (P09619 whole entry, canonical isoform): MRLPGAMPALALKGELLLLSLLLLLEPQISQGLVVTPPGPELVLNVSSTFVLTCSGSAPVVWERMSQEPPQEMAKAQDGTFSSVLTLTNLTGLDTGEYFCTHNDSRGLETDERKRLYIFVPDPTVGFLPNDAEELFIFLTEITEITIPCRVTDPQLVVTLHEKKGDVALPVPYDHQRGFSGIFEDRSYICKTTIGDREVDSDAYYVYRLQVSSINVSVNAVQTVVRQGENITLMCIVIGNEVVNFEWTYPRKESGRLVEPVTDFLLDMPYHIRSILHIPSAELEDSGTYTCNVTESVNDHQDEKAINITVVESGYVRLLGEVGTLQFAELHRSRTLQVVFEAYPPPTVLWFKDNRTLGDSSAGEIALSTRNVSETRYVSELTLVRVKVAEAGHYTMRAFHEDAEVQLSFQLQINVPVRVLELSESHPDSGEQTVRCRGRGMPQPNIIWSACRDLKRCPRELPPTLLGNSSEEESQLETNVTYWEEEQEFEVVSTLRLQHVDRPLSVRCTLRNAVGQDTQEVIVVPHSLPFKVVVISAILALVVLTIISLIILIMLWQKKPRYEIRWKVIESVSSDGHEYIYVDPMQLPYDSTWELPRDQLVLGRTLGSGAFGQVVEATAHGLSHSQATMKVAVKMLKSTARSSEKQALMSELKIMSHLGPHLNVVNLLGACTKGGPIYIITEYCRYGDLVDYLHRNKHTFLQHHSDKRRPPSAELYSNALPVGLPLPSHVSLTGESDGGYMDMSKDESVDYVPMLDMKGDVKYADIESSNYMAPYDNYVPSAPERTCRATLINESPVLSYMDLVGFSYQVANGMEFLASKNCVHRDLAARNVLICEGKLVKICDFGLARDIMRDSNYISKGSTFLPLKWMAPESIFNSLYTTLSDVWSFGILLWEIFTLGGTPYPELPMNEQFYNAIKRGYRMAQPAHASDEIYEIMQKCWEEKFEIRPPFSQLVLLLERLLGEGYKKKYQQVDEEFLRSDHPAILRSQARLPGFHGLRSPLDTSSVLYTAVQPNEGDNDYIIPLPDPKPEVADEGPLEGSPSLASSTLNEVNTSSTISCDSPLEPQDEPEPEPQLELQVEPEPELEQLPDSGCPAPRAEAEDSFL
Protein kinase C delta type (Homo sapiens), sequence (Q05655 whole entry, looked up): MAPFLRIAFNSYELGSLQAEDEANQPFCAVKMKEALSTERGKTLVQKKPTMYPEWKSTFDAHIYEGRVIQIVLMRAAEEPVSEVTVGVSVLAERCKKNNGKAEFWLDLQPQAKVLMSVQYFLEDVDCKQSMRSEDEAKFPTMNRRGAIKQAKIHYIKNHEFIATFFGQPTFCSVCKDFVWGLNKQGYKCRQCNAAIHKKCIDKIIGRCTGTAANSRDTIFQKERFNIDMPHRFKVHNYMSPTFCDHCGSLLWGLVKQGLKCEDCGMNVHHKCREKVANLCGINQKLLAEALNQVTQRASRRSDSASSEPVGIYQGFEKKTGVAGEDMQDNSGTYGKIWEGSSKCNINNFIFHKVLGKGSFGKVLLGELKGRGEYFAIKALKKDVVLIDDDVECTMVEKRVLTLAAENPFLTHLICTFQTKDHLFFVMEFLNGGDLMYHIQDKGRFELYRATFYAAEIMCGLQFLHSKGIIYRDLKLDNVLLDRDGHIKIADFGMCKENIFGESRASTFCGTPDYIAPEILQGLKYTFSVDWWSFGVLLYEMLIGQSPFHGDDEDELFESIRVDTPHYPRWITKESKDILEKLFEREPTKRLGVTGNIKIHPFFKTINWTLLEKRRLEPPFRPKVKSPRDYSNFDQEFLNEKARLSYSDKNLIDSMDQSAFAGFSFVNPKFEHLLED

CCc1ccccc1C(=O)Nc1n[nH]c2c(C)c(F)c(C3C(C#N)=C(C)N(C)C(C)=C3C#N)cc12 [BAY-3827]
% residual kinase activity [1]: 7%
% residual kinase activity [2]: 92%
% residual kinase activity [3]: 115%
IC50 [4]: 10 nM
% residual kinase activity [5]: 101%
% residual kinase activity [6]: 109%
% residual kinase activity (Homo sapiens): 94%
% residual kinase activity [7]: 55%
% residual kinase activity [8]: 69%
% residual kinase activity [9]: 102%
% residual kinase activity [10]: 108%
% residual kinase activity [11]: 99%
